Read-outs that look alike come from different tables or passages of the source. *1 amine or outer side, *2 acyl side, *3 side chain or, on linkers, in order; H or OH if unused. Where a SMILES comes first, the peptide text is derived from it. Bridges are numbered along the chain shown (N, C = ends). [ ]: non-standard residue; d: D form. The star is where a group is joined. hPhe(3-Cl-4-CF3) = N[C@@H](CCc1ccc(C(F)(F)F)c(Cl)c1)C(=O)O; NPrPhe(4-CF3) = CCCN[C@@H](Cc1ccc(C(F)(F)F)cc1)C(=O)O; X43 = CCCN([C@@H](Cc1ccccc1)C(=O)[*:2])[*:1]; NMeGly(cPent) = CN[C@H](C(=O)O)C1CCCC1; Pro(4,4-F2) = O=C(O)[C@@H]1CC(F)(F)CN1; NMeD = CN[C@@H](CC(=O)O)C(=O)O; NMeL = CN[C@@H](CC(C)C)C(=O)O; NMeNva = CCC[C@H](NC)C(=O)O; Morpholide = C1CN(*)CCO1; NMeA = CN[C@@H](C)C(=O)O; Ac5c = NC1(C(=O)O)CCCC1; Aze = O=C(O)[C@@H]1CCN1; Sar = CNCC(=O)O
Key:
[1] = target: GDP-bound KRAS wild-type protein (Homo sapiens, UniProt P01116); experiment: Binding to KRAS by surface plasmon resonance (SPR), Single Cycle Kinetics; details: GDP-bound KRAS wild-type protein, read-out: KRAS KD
[2] = target: GDP-bound NRAS wild-type protein (Homo sapiens, UniProt P01111); experiment: Binding to NRAS by surface plasmon resonance (SPR), Single Cycle Kinetics; details: for NRAS/KRAS (ratio of KD value for NRAS to KD value for KRAS) / NRAS/KRAS (ratio of KD value with respect to NRAS to KD value with respect to KRAS): GDP-bound NRAS wild-type protein vs GDP-bound KRAS wild-type protein; for NRAS/KRAS (ratio of KD value with respect to GDP-bound NRAS wild-type protein to KD value with respect to KRAS): SPR KD ratio NRAS/KRAS, class symbols
[3] = target: GDP-bound HRAS wild-type protein (Homo sapiens, UniProt P01112); experiment: Binding to HRAS by surface plasmon resonance (SPR), Single Cycle Kinetics; details: for HRAS/KRAS (ratio of KD value for HRAS to KD value for KRAS) / HRAS/KRAS (ratio of KD value with respect to HRAS to KD value with respect to KRAS): GDP-bound HRAS wild-type protein vs GDP-bound KRAS wild-type protein; for HRAS/KRAS (ratio of KD value with respect to GDP-bound HRAS wild-type protein to KD value with respect to KRAS): SPR KD ratio HRAS/KRAS, class symbols
[4] = SPR Single Cycle Kinetics, 1:1 binding model

GDP-bound KRAS wild-type protein, sequence (P01116 whole entry): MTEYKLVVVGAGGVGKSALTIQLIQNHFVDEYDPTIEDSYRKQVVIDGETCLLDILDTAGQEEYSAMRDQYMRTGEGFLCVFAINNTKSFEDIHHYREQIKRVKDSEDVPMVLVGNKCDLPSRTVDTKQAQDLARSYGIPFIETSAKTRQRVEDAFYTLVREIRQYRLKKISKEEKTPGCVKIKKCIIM
GDP-bound HRAS wild-type protein, sequence (P01112 whole entry): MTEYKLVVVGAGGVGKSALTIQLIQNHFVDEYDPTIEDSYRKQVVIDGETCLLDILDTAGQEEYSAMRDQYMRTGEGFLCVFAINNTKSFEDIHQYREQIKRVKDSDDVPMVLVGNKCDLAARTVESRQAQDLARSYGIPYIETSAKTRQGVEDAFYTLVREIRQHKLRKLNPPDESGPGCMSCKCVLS
GDP-bound NRAS wild-type protein, sequence (P01111 whole entry): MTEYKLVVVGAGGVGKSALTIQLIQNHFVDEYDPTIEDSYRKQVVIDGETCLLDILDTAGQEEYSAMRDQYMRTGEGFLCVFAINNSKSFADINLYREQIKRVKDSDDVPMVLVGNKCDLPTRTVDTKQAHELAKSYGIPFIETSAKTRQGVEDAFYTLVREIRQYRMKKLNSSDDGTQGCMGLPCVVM

Kd [1, 4] [nM]	Structure (SMILES)	NRAS/KRAS (ratio of KD value for NRAS to KD value for KRAS) ([2]; SPR)	HRAS/KRAS (ratio of KD value for HRAS to KD value for KRAS) ([3]; SPR)	NRAS/KRAS (ratio of KD value with respect to NRAS to KD value with respect to KRAS) ([2]; SPR)	HRAS/KRAS (ratio of KD value with respect to HRAS to KD value with respect to KRAS) ([3]; SPR)	further results
0.06	CCC[C@H]1C(=O)N[C@@H]([C@@H](C)CC)C(=O)N(C)CC(=O)N(C)CC(=O)N(CCC)[C@@H](Cc2ccc(C(F)(F)F)cc2)C(=O)N(C)CC(=O)N[C@@H](CCc2ccc(C(F)(F)F)c(Cl)c2)C(=O)N2CC(F)(F)C[C@H]2C(=O)NC2(CCCC2)C(=O)N(C)[C@@H](C2CCCC2)C(=O)N(C)[C@H](C(=O)N2CCOCC2)CC(=O)N1C [PP0201] ([NMeNva]I[Sar][Sar][NPrPhe(4-CF3)][Sar][hPhe(3-Cl-4-CF3)][Pro(4,4-F2)][Ac5c][NMeGly(cPent)][NMeD]-Morpholide; lactam N-11)	B (a compound having 3 or more and less than 10 is denoted as B)	C (A compound having a KD ratio of 0.1 or more and less than 3 is denoted as C)			
0.76	CCC[C@H]1C(=O)N[C@@H]([C@@H](C)CC)C(=O)N(C)CC(=O)N(C)[C@H]2C/C=C\CCN(C2=O)[C@@H](Cc2ccc(C(F)(F)F)cc2)C(=O)N(C)CC(=O)N[C@@H](CCc2cc(Cl)c3c(ccn3C)c2)C(=O)N2C[C@H](OCC)C[C@H]2C(=O)NC2(CC(C)(C)C2)C(=O)N(C)[C@@H](C2CCCC2)C(=O)N(C)[C@H](C(=O)N(C)C)CC(=O)N1C [PP2950]					NRAS/KRAS (ratio of KD value with respect to GDP-bound NRAS wild-type protein to KD value with respect to KRAS) [2]: A (a compound having 10 or more and less than 20 is denoted as A); HRAS/KRAS (ratio of KD value with respect to GDP-bound HRAS wild-type protein to KD value with respect to KRAS) [3]: A (a compound having 10 or more and less than 20 is denoted as A)
0.17	CC[C@H](C)[C@@H]1NC(=O)[C@H](CC(C)C)N(C)C(=O)C[C@@H](C(=O)N2CCOCC2)N(CC)C(=O)[C@H](C2CCCC2)N(C)C(=O)C2(CCCC2)NC(=O)[C@@H]2CCCN2C(=O)[C@H](CCc2cc(F)c(C(F)(F)F)c(F)c2)NC(=O)CN(C)C(=O)[C@H](Cc2ccc(C(F)(F)F)cc2)N2CCCC[C@@H](C2=O)N(C)C(=O)CN(C)C1=O [PP0539]			B (a compound having 3 or more and less than 10 is denoted as B)	B (a compound having 3 or more and less than 10 is denoted as B)	
8.5	CCCN1C(=O)[C@H](C2CCCC2)N(C)C(=O)C2(CCC2)NC(=O)[C@@H]2C[C@@H](OCC)CN2C(=O)[C@H](CCc2cc(F)c(C(F)(F)F)c(F)c2)NC(=O)CN(C)C(=O)[C@H](Cc2ccc(C(F)(F)F)cc2)N2CCCCC[C@@H](C2=O)N(C)C(=O)CN(C)C(=O)[C@H]([C@@H](C)CC)NC(=O)[C@H](CC(C)C)N(C)C(=O)C[C@H]1C(=O)N1CCOCC1 [PP0639]			B (a compound having 3 or more and less than 10 is denoted as B)	B (a compound having 3 or more and less than 10 is denoted as B)	
	CCO[C@@H]1C[C@H]2C(=O)NC3(CC(C)(C)C3)C(=O)N(C)[C@@H](C3CCCC3)C(=O)N(C)[C@H](C(=O)N(C)C)CC(=O)N(C)[C@H]3CCCC/C=C/c4ccc(cc4)C[C@@H](C(=O)N(C)CC(=O)N[C@@H](CCc4cc(F)c(C(F)(F)F)c(F)c4)C(=O)N2C1)N1CC/C=C\C[C@@H](C1=O)N(C)C(=O)CN(C)C(=O)[C@H]([C@@H](C)CC)NC3=O [PP1831]					Kd ([1]; SPR, Single Cycle Kinetics): 0.025 nM; NRAS/KRAS (KD ratio) ([2]; ratio of KD for GDP-bound NRAS wild-type protein to KD for KRAS, SPR): A (a compound having 10 or more and less than 20 is denoted as A); HRAS/KRAS (KD ratio) ([3]; ratio of KD for GDP-bound HRAS wild-type protein to KD for KRAS, SPR): A (a compound having 10 or more and less than 20 is denoted as A)
0.58	CCC[C@H]1C(=O)N[C@@H]([C@@H](C)CC)C(=O)N(C)CC(=O)N(C)[C@H]2CCCCCN(C2=O)[C@@H](Cc2ccc(C(F)(F)F)cc2)C(=O)N(C)CC(=O)N[C@@H](CCc2cc(F)c(C(F)(F)F)c(F)c2)C(=O)N2C[C@H](OCC)C[C@H]2C(=O)NC2(CCC2)C(=O)N(C)[C@@H](C2CCCC2)C(=O)N(C)[C@H](C(=O)N2CCOCC2)CC(=O)N1C [PP0679]			B (a compound having 3 or more and less than 10 is denoted as B)	B (a compound having 3 or more and less than 10 is denoted as B)	
	CCCN(C)C(=O)[C@@H]1CC(=O)N(C)[C@@H](CC2CC2)C(=O)N[C@@H]([C@@H](C)CC)C(=O)N(C)CC(=O)N(C)[C@H]2C/C=C\CCN(C2=O)[C@@H](Cc2ccc(C(F)(F)F)cc2)C(=O)N(C)CC(=O)N[C@@H](CCc2cc(F)c(C(F)(F)F)c(F)c2)C(=O)N2C[C@H](OCC)C[C@H]2C(=O)NC2(CCC2)C(=O)N(C)[C@@H](C2CCCC2)C(=O)N1C [PP1388]					Kd ([1]; SPR, Single Cycle Kinetics, 1:1 binding model): 0.076 nM; NRAS/KRAS (ratio of KD value for NRAS to KD value for KRAS) ([2]; SPR, KD ratio class): A (a compound having 10 or more and less than 20 is denoted as A); HRAS/KRAS (ratio of KD value for HRAS to KD value for KRAS) ([3]; SPR, KD ratio class): B (a compound having 3 or more and less than 10 is denoted as B)
0.026	CC[C@H](C)[C@@H]1NC(=O)[C@H](CC(C)C)N(C)C(=O)C[C@@H](C(=O)N(C)C)N(C)C(=O)[C@H](C2CCCC2)N(C)C(=O)C2(CCC2)NC(=O)[C@@H]2CCCN2C(=O)[C@H](CCc2cc(F)c(C(F)(F)F)c(F)c2)NC(=O)CN(C)C(=O)[C@H](Cc2ccc(C(F)(F)F)cc2)N2CCCC[C@@H](C2=O)N(C)C(=O)CN(C)C1=O [PP0574]			C (A compound having a KD ratio of 0.1 or more and less than 3 is denoted as C)	B (a compound having 3 or more and less than 10 is denoted as B)	
0.052	CC[C@H](C)[C@@H]1NC(=O)[C@H](CC(C)C)N(C)C(=O)C[C@@H](C(=O)N2CCOCC2)N(C)C(=O)[C@H](C2CCCC2)N(C)C(=O)C2(CCCC2)NC(=O)[C@@H]2CCCN2C(=O)[C@H](CCc2cc(F)c(C(F)(F)F)c(F)c2)NC(=O)CN(C)C(=O)[C@H](Cc2ccc(C(F)(F)F)cc2)N2CCCC[C@@H](C2=O)N(C)C(=O)CN(C)C1=O [PP0552]			B (a compound having 3 or more and less than 10 is denoted as B)	B (a compound having 3 or more and less than 10 is denoted as B)	
0.08	CCO[C@@H]1C[C@H]2C(=O)NC3(CCC3)C(=O)N(C)[C@@H](C3CCCC3)C(=O)N(C)[C@H](C(=O)N(C)C)CC(=O)N(C)[C@@H](CC3CCCC3)C(=O)N[C@@H]([C@@H](C)CC)C(=O)N(C)CC(=O)N(C)[C@H]3C/C=C\CCN(C3=O)[C@@H](Cc3ccc(C(F)(F)F)cc3)C(=O)N(C)CC(=O)N[C@@H](CCc3ccc(C(F)(F)F)c(Cl)c3)C(=O)N2C1 [PP2842]					NRAS/KRAS (ratio of KD value with respect to GDP-bound NRAS wild-type protein to KD value with respect to KRAS) [2]: A (a compound having 10 or more and less than 20 is denoted as A); HRAS/KRAS (ratio of KD value with respect to GDP-bound HRAS wild-type protein to KD value with respect to KRAS) [3]: B (a compound having 3 or more and less than 10 is denoted as B)
	CCCO[C@H]1CCN2C(=O)[C@H](CCc3cc(F)c(C(F)(F)F)c(F)c3)NC(=O)CN(C)C(=O)[C@H](Cc3ccc(C(F)(F)F)cc3)N3CCCCC[C@@H](C3=O)N(C)C(=O)CN(C)C(=O)[C@H]([C@@H](C)CC)NC(=O)[C@H](CC(C)C)N(C)C(=O)C[C@@H](C(=O)N3CCOCC3)N(C)C(=O)[C@H](C3CCCC3)N(C)C(=O)C3(CCC3)NC(=O)[C@H]12 [PP1069]	A (a compound having 10 or more and less than 20 is denoted as A)	B (a compound having 3 or more and less than 10 is denoted as B)			Kd ([1]; SPR, Single Cycle Kinetics): 2.5 nM
	CCO[C@@H]1C[C@H]2C(=O)NC3(CCC3)C(=O)N(C)[C@@H](C3CCCC3)C(=O)N(CC)[C@H](C(=O)N3CCOCC3)CC(=O)N(C)[C@@H](CC)C(=O)N[C@@H]([C@@H](C)CC)C(=O)N(C)CC(=O)N(C)[C@H]3CCCCCN(C3=O)[C@@H](Cc3ccc(C(F)(F)F)cc3)C(=O)N(C)CC(=O)N[C@@H](CCc3cc(F)c(C(F)(F)F)c(F)c3)C(=O)N2C1 [PP0944]	A (a compound having 10 or more and less than 20 is denoted as A)	A (a compound having 10 or more and less than 20 is denoted as A)			Kd ([1]; SPR, Single Cycle Kinetics): 3.9 nM
	CCO[C@@H]1C[C@H]2C(=O)NC3(CC(C)(C)C3)C(=O)N(C)[C@@H](C(CC)CC)C(=O)N(C)[C@H](C(=O)N(C)C)CC(=O)N(C)[C@@H](CC3CC3)C(=O)N[C@@H]([C@@H](C)CC)C(=O)N(C)CC(=O)N(C)[C@H]3C/C=C\CCN(C3=O)[C@@H](Cc3ccc(C)cc3)C(=O)N(C)CC(=O)N[C@@H](CCc3cc(F)c(C(F)(F)F)c(F)c3)C(=O)N2C1 [PP2137]	A (a compound having 10 or more and less than 20 is denoted as A)	A (a compound having 10 or more and less than 20 is denoted as A)			Kd ([1]; SPR, Single Cycle Kinetics): 0.37 nM
0.28	CCCN1C(=O)[C@@H]2CCN2C(=O)[C@H](C)N(C)C(=O)[C@H]([C@@H](C)CC)NC(=O)[C@H](CC(C)C)N(C)C(=O)C[C@@H](C(=O)N2CCOCC2)N(C)C(=O)[C@H](C2CCCC2)N(C)C(=O)C2(CCCC2)NC(=O)[C@@H]2CCCN2C(=O)[C@H](CCc2ccc(C(F)(F)F)c(Cl)c2)NC(=O)CN(C)C(=O)[C@@H]1Cc1ccccc1 [PP0216] ([NMeL]I[NMeA][Aze][X43][Sar][hPhe(3-Cl-4-CF3)]P[Ac5c][NMeGly(cPent)][NMeD]-Morpholide; lactam N-11)	C (A compound having a KD ratio of 0.1 or more and less than 3 is denoted as C)	B (a compound having 3 or more and less than 10 is denoted as B)			

Reference: patent US20240158446A1, “CYCLIC COMPOUND HAVING SELECTIVE INHIBITORY ACTION ON KRAS OVER HRAS AND NRAS” (CHUGAI SEIYAKU KABUSHIKI KAISHA, priority 2021, published 2024)
